Assays:
Assay in all cases: relative viability (nuclei count vs DMSO), 5 days (fraction); higher = more cells survive
NCI-H2009 = system: NCI-H2009
Outline: (§1)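 Lung cancer cell lines were pin-tool dosed in 1536-well plates on the day after seeding, with either a lone drug or a fixed anchor-drug dose plus five library-drug doses (not always all listed) in √10 steps. Nuclei were counted on 4× images after 5 days. Relative viability is the ratio of treated-well to vehicle-well nuclei counts, with each value a median of duplicate plates.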

HCC-366 = system: HCC-366
Outline: as §1

NCI-H661 = system: NCI-H661
Outline: as §1

EKVX = system: EKVX
Outline: as §1

NCI-H2405 = system: NCI-H2405
Outline: as §1

SK-MES-1 = system: SK-MES-1
Outline: as §1

HCC-44 = system: HCC-44
Outline: as §1

BEN = system: BEN
Outline: as §1

SK-LU-1 = system: SK-LU-1
Outline: as §1

LC-2-ad = system: LC-2-ad
Outline: as §1

NCI-H2170 = system: NCI-H2170
Outline: as §1

NCI-H1792 = system: NCI-H1792
Outline: as §1

NCI-H596 = system: NCI-H596
Outline: as §1

HARA = system: HARA
Outline: as §1

LOU-NH91 = system: LOU-NH91
Outline: as §1

NCI-H2087 = system: NCI-H2087
Outline: as §1

NCI-H1734 = system: NCI-H1734
Outline: as §1

NCI-H2228 = system: NCI-H2228
Outline: as §1

NCI-H647 = system: NCI-H647
Outline: as §1

NCI-H1355 = system: NCI-H1355
Outline: as §1

HCC-827 = system: HCC-827
Outline: as §1

NCI-H1395 = system: NCI-H1395
Outline: as §1

NCI-H1437 = system: NCI-H1437
Outline: as §1

C[C@@H]1CN(CC(=O)Nc2ccc3c(c2)Cc2cccc(-c4cc(=O)cc(N5CCOCC5)o4)c2S3)C[C@H](C)O1 + CS(=O)(=O)CCNCc1ccc(-c2ccc3ncnc(Nc4ccc(OCc5cccc(F)c5)c(Cl)c4)c3c2)o1 [Lapatinib] (partner 2 µM)
relative viability (NCI-H2009; first compound 0.04 µM): 0.486
relative viability (NCI-H2009; first compound 0.1265 µM): 0.846
relative viability (NCI-H2009; first compound 0.4 µM): 0.964
relative viability (NCI-H2009; first compound 4 µM): 0.687
relative viability (HCC-366; first compound 0.04 µM): 0.383
relative viability (HCC-366; first compound 0.1265 µM): 0.974
relative viability (HCC-366; first compound 0.4 µM): 1.17
relative viability (HCC-366; first compound 4 µM): 0.824
relative viability (NCI-H661; first compound 0.1265 µM): 0.488
relative viability (NCI-H661; first compound 0.4 µM): 0.479
relative viability (NCI-H661; first compound 4 µM): 0.411
relative viability (EKVX; first compound 0.04 µM): 0.271
relative viability (EKVX; first compound 0.1265 µM): 0.179
relative viability (EKVX; first compound 0.4 µM): 0.224
relative viability (EKVX; first compound 4 µM): 0.211
relative viability (NCI-H2405; first compound 0.04 µM): 0.879
relative viability (NCI-H2405; first compound 0.1265 µM): 1.11
relative viability (NCI-H2405; first compound 0.4 µM): 1.04
relative viability (NCI-H2405; first compound 4 µM): 1.07
relative viability (SK-MES-1; first compound 0.04 µM): 0.463
relative viability (SK-MES-1; first compound 0.1265 µM): 0.53
relative viability (SK-MES-1; first compound 0.4 µM): 0.429
relative viability (SK-MES-1; first compound 4 µM): 0.409
relative viability (HCC-44; first compound 0.04 µM): 0.94
relative viability (HCC-44; first compound 0.1265 µM): 1.02
relative viability (HCC-44; first compound 0.4 µM): 1.07
relative viability (HCC-44; first compound 4 µM): 0.922
relative viability (BEN; first compound 0.04 µM): 0.609
relative viability (BEN; first compound 0.1265 µM): 0.666
relative viability (BEN; first compound 0.4 µM): 0.738
relative viability (BEN; first compound 4 µM): 0.745
relative viability (SK-LU-1; first compound 0.04 µM): 0.869
relative viability (SK-LU-1; first compound 0.1265 µM): 0.959
relative viability (SK-LU-1; first compound 0.4 µM): 0.877
relative viability (SK-LU-1; first compound 4 µM): 0.707
relative viability (LC-2-ad; first compound 0.04 µM): 1
relative viability (LC-2-ad; first compound 0.1265 µM): 0.928
relative viability (LC-2-ad; first compound 0.4 µM): 0.672
relative viability (LC-2-ad; first compound 4 µM): 0.875
relative viability (NCI-H2170; first compound 0.1265 µM): 0.251
relative viability (NCI-H2170; first compound 0.4 µM): 0.277
relative viability (NCI-H2170; first compound 4 µM): 0.277
relative viability (NCI-H1792; first compound 0.04 µM): 0.824
relative viability (NCI-H1792; first compound 0.1265 µM): 0.832
relative viability (NCI-H1792; first compound 0.4 µM): 0.856
relative viability (NCI-H1792; first compound 4 µM): 0.849
relative viability (NCI-H596; first compound 0.04 µM): 1.07
relative viability (NCI-H596; first compound 0.1265 µM): 1.24
relative viability (NCI-H596; first compound 0.4 µM): 1.06
relative viability (NCI-H596; first compound 4 µM): 1.03
relative viability (HARA; first compound 0.04 µM): 0.732
relative viability (HARA; first compound 0.1265 µM): 0.613
relative viability (HARA; first compound 0.4 µM): 0.796
relative viability (HARA; first compound 4 µM): 0.738
relative viability (LOU-NH91; first compound 0.04 µM): 0.689
relative viability (LOU-NH91; first compound 0.1265 µM): 0.792
relative viability (LOU-NH91; first compound 0.4 µM): 0.676
relative viability (LOU-NH91; first compound 4 µM): 0.733
relative viability (NCI-H2087; first compound 0.04 µM): 1.06
relative viability (NCI-H2087; first compound 0.1265 µM): 1.01
relative viability (NCI-H2087; first compound 0.4 µM): 1.13
relative viability (NCI-H2087; first compound 4 µM): 0.798
relative viability (NCI-H1734; first compound 0.04 µM): 1.02
relative viability (NCI-H1734; first compound 0.1265 µM): 1.17
relative viability (NCI-H1734; first compound 0.4 µM): 1.03
relative viability (NCI-H1734; first compound 4 µM): 1.23
relative viability (NCI-H2228; first compound 0.04 µM): 1.23
relative viability (NCI-H2228; first compound 0.1265 µM): 1.05
relative viability (NCI-H2228; first compound 0.4 µM): 0.974
relative viability (NCI-H2228; first compound 4 µM): 0.618
relative viability (NCI-H647; first compound 0.04 µM): 1.02
relative viability (NCI-H647; first compound 0.1265 µM): 1.07
relative viability (NCI-H647; first compound 0.4 µM): 1.16
relative viability (NCI-H647; first compound 4 µM): 0.638
relative viability (NCI-H1355; first compound 0.04 µM): 0.713
relative viability (NCI-H1355; first compound 0.1265 µM): 0.992
relative viability (NCI-H1355; first compound 0.4 µM): 0.816
relative viability (NCI-H1355; first compound 4 µM): 0.97
relative viability (HCC-827; first compound 0.04 µM): 0.172
relative viability (HCC-827; first compound 0.1265 µM): 0.191
relative viability (HCC-827; first compound 0.4 µM): 0.212
relative viability (HCC-827; first compound 4 µM): 0.19
relative viability (NCI-H1395; first compound 0.04 µM): 0.928
relative viability (NCI-H1395; first compound 0.1265 µM): 1
relative viability (NCI-H1395; first compound 0.4 µM): 1.06
relative viability (NCI-H1395; first compound 4 µM): 0.93
relative viability (NCI-H1437; first compound 0.04 µM): 0.758
relative viability (NCI-H1437; first compound 0.1265 µM): 0.703
relative viability (NCI-H1437; first compound 0.4 µM): 0.834
relative viability (NCI-H1437; first compound 4 µM): 0.702
